Source: patent US11453642B2, “Oxygenated amino- or ammonium-containing sulfonic acid, phosphonic acid and carboxylic acid derivatives and their medical use” (GRI BIO, INC., priority 2011, dated 2022)

Tested on: Akt phosphorylation on Ser473
Assay: Inhibition of activation of Akt kinase (phospho-Akt Ser473 assay in RBL-2H3 cells)
Type: cell-based, Rat
Conditions: IgE and antigen 15 min, normalized to total Akt
Source text: The mast cell degranulation assay using the RBL-2H3 cell line (see example 6) was also used to determine the status of the PI3K/Akt axis. Activation of PI3K leads to production of PIP3 on the cytosolic side of the lipid bilayer. Akt is recruited to the PIP3 domain and subsequently activated by phosphorylation on residues Ser473 and Thr308. (Franke et al., Cell 81:727-736, (1995)). Once recruited to the membrane, it is phosphorylated and activated by other kinases (Hemmings, Science 275:628-630 (1997); Hemmings, Science 276:534 (1997); Downward. Science 279:673-674 (1998); Alessi et al., EMBO J. 15:6541-6551 (1996)). Western blotting of the phosphorylated Ser473 residue on Akt (phospho-Akt Ser473) is widely used to assess the level of activation of the PI3K/Akt axis.
All buffers and solutions used for the phosphor-Akt Ser473 assay were from Meso Scale Discovery. Tris Lysis Buffer consisted of 150 mM NaCl, 20 mM Tris, pH 7.5, 1 mM EDTA, 1 mM EGTA and 1% Triton-X-100. Complete Tris Lysis Buffer was prepared prior to use by addition of protease inhibitor, phosphatase inhibitors and PMSF. The 10× Tris Wash Buffer consisted of 500 mM Tris, pH 7.5, 1.5 M NaCl and 0.2% Tween-20. Blocker A was made up of bovine serum albumin in Tris Wash Buffer, Read Buffer T was used according to manufacturer's instructions. The Whole Cell Lysate Kits used were phospho-Akt Ser473 (K111000, Lot K0011749) and total ERK1/2 (K11107D, Lot K0011698) as a loading control.
Protein assay: protein concentration was determined using the BCA (bicinchoninic acid) Protein Assay kit according to the manufacturer's instructions. Briefly, duplicate 10 μl samples of bovine serum albumin (BSA) standards, blank and lysates were incubated in a 96-well plate with 0.2 ml working reagent for 30 min at 37° C. Plates were cooled to room temperature for 5 min and absorbance at 562 nm was measured in a multi-mode plate reader. Protein concentrations were calculated using FlexStation 3 software (SoftMax Pro version 5.3), Protein concentration of lysates was determined from a standard curve (BSA) using a linear curve fit.
Phosphoprotein assay: protein phosphorylation was determined using the MULTI-SPOT® Assay System (Meso Scale Discovery), providing simultaneous detection of phosphorylated and total proteins. Briefly, capture antibodies against phosphorylated and total protein are patterned on distinct spots in the same well of 96-well plates. Sandwich immunoassay and electrochemiluminescence detection technology are combined to measure intensity of the emitted light from phosphorylated and total protein spots. Analysis of phosphor-Akt Ser473 was performed according to the manufacturer's instructions. The optimal amount of protein was determined at 5 μg lysate per well for ERK1/2 and 10 μg/well for phospho-Akt Ser473, Plates were blocked with 25 μl/well Blocker A for 1 h at room temperature with gentle agitation. During this time, the lysates were thawed and diluted to the desired protein concentration in complete Tris Lysis Buffer. Plates were washed four times in Tris Wash Buffer and 25 μl lysate per well added. Plates were incubated for 1-3 h at room temperature with agitation according to the manufacturer's recommendations. Plates were washed four times with Tris Wash Buffer, followed by addition of 25 μl/well of the respective detection antibody and incubation for 1 h at room temperature, with agitation. After a final four washes with Tris Wash Buffer 150 μl/well, Read Buffer T was added and plates read on a SECTOR Imager 6000 plate reader.
The mean background signal from each plate was subtracted from averaged raw data. The amount of total protein phosphorylated was expressed as % phosphoprotein according to the manufacturer's (Meso Scale Discovery) instructions.
Levels of phospho-Akt Ser473 were determined in IgE sensitized and antigen stimulated cells after treatment without (positive control) or with 1, 5 and 25 μM test compound and normalized to levels of total Akt.

| Compound | Level of phospho-Akt Ser473 (1 μM) [% positive control] | Level of phospho-Akt Ser473 (5 μM) [% positive control] | Level of phospho-Akt Ser473 (25 μM) [% positive control] |
| --- | --- | --- | --- |
| CCCCCCCCCCCCCCCCN(C)CC(O)CS(=O)(=O)O (stereo not drawn) [Compound 1a, 2-hydroxy-3-(N-methylhexadecylammonio)propane-sulfonate] | 80.8 ± 17.9 | 62.4 ± 16.1 | 9.7 ± 4.9 |
| CCCCCCCCCCCCN(C)CC(O)CS(=O)(=O)O (stereo not drawn) [Compound 1c, 2-hydroxy-3-(N-methyldodecylammonio)propanesulfonate] | 119.7 ± 35.7 | 67.9 ± 17.3 | 17.4 ± 6.4 |
